The text below walks through data of ChEMBL document CHEMBL1156034, “The first pharmacophore model for potent NF-kappaB inhibitors” (Bioorg Med Chem Lett, 2009).

Structures are written as SMILES. Where a SMILES comes first, the peptide text is derived from it. The star is where a group is joined. Cbz = O=C(OCc1ccccc1)* Where only a bound is given, the exact number is not on record here.

The test is described as follows: Inhibition of NF-kappaB activation.
In general, IC50 refers to the concentration at which inhibition is half-maximal. High values mean a need for much substance, low ones inhibition by little substance. `Clc1ccc(CNc2ncnc3ccccc23)cc1` had an IC50 of 1830 nM.

Consider `Oc1ccc2ncnc(NCCc3ccc(Cl)cc3)c2c1`, for which inhibition was half-maximal at 313 nM (IC50). Regarding `O=[N+]([O-])c1ccc2ncnc(NCCc3ccc(Cl)cc3)c2c1`, the IC50 was determined as 1520 nM.

`Clc1ccc(CCNc2ncnc3ccc(Cl)cc23)cc1` displayed an IC50 of 344 nM. Then `O=[N+]([O-])c1ccc2c(NCCc3ccc(Cl)cc3)ncnc2c1`, with 1760 nM; and `Nc1ccc2ncnc(NCCc3ccc(Cl)cc3)c2c1`, with 176 nM; and `Nc1ccc2c(NCCc3ccc(Cl)cc3)ncnc2c1`, with 2200 nM. In the case of `Clc1ccc(CCNc2ncnc3ccccc23)cc1`, inhibition was half-maximal at 630 nM (IC50). Then `Clc1ccc(CCNc2ncnc3ccc(Br)cc23)cc1`, with 851 nM; and `O=[N+]([O-])c1cc2c(NCCc3ccc(Cl)cc3)ncnc2cc1Cl`, with 9060 nM; and `O=C1c2ccc(O)cc2C(=O)N1c1c(Br)cccc1Br`, with 430 nM.

As to `Cc1ccc(S(=O)(=O)Nc2cccc3cccnc23)c([N+](=O)[O-])c1`, half-maximal inhibition (IC50) was put at 2100 nM. The compound `COc1cc(NS(=O)(=O)c2ccc(C)cc2N)c2ncccc2c1` registered an IC50 of 1000 nM. Take `Nc1ccccc1S(=O)(=O)Nc1cccc2cccnc12`: the midpoint of inhibition, the IC50, lay at 2000 nM. With `Cc1ccc2cccc(NS(=O)(=O)c3ccccc3[N+](=O)[O-])c2n1`, the IC50 is 3800 nM. As to `Cc1ccc2cccc(NS(=O)(=O)c3ccc(Cl)s3)c2n1`, the IC50 was found to be 1000 nM. As to `Cc1ccc2cccc(NS(=O)(=O)c3ccc(Br)s3)c2n1`, half-maximal inhibition (IC50) required 1400 nM. `O=S(=O)(Nc1cccc2cccnc12)c1cccs1` had an IC50 of 3600 nM. As to `O=S(=O)(Nc1cccc2cccnc12)c1ccc(Cl)s1`, half-maximal inhibition (IC50) was put at 1300 nM. For `Cc1ccc2cccc(NS(=O)(=O)c3ccccc3N)c2n1`, the IC50 stood at 2800 nM. Then `Cc1ccc2cccc(NS(=O)(=O)c3ccc(C(F)(F)F)cc3[N+](=O)[O-])c2n1`, with 1100 nM. `COc1cc(NS(=O)(=O)c2ccc(C)cc2[N+](=O)[O-])c2ncccc2c1` registered an IC50 of 2100 nM. Turning to `COc1cnc2c3c(ccc2c1)-c1ccccc1S(=O)(=O)N3`, 2500 nM corresponded to half-maximal inhibition (IC50). The IC50 values of the last two compounds are within 1.5-fold of each other.

In turn, `O=[N+]([O-])c1ccccc1S(=O)(=O)Nc1cccc2cccnc12` gave an IC50 of 3200 nM. Turning to `O=S1(=O)Nc2c(ccc3cccnc23)-c2cc(F)ccc21`, half-maximal inhibition (IC50) required 1700 nM. In the case of `COc1ccc(S(=O)(=O)Nc2cccc3ccc(C)nc23)c([N+](=O)[O-])c1`, half-maximal inhibition (IC50) was put at 1000 nM. Take `Cc1ccc2c(c1)-c1ccc3cccnc3c1NS2(=O)=O`: 600 nM corresponded to half-maximal inhibition (IC50). This IC50 is about 1.7-fold lower than that of the compound before. Then `O=S1(=O)Nc2c(ccc3cccnc23)-c2cc(C(F)(F)F)ccc21`, with 1000 nM; and `COc1cc2cccnc2c2c1-c1cc(C)ccc1S(=O)(=O)N2`, with 1200 nM; and `COc1ccc2c(c1)-c1ccc3ccc(C)nc3c1NS2(=O)=O`, with 2500 nM. `Cc1ccc2ccc3c(c2n1)NS(=O)(=O)c1ccc(C(F)(F)F)cc1-3` gave an IC50 of 1200 nM. Turning to `COc1cc2ccc(C)nc2c2c1-c1cc(C)ccc1S(=O)(=O)N2`, the midpoint of inhibition, the IC50, lay at 900 nM. The compound `CC(C)c1cccc(C(C)C)c1N1C(=O)c2ccc(O)cc2C1=O` registered an IC50 of 530 nM. As for `O=S(=O)(Nc1cccc2cccnc12)c1ccc(Br)s1`, inhibition was half-maximal at 1100 nM (IC50).

For the compound `Cc1ccc2cccc(NS(=O)(=O)c3cccc([N+](=O)[O-])c3)c2n1`, 900 nM corresponded to half-maximal inhibition (IC50). Regarding `Cc1ccc2ccc3c(c2n1)NS(=O)(=O)c1ccc(O)cc1-3`, half-maximal inhibition (IC50) required 10000 nM. As to `COc1ccc2c(c1)-c1ccc3cccnc3c1NS2(=O)=O`, it took 1000 nM to reach half-maximal inhibition (IC50).

`O=[N+]([O-])c1cc(C(F)(F)F)ccc1S(=O)(=O)Nc1cccc2cccnc12` yielded an IC50 of 3700 nM. The figure for `c1ccc(CCCNc2ncnc3ccccc23)cc1` is 2380 nM; for `O=S1(=O)Nc2c(ccc3cccnc23)-c2ccccc21` it is 1000 nM. Compound `Cc1ccc([N+](=O)[O-])cc1S(=O)(=O)Nc1cccc2cccnc12` yielded an IC50 of 1600 nM. Then `O=S1(=O)Nc2c(ccc3cccnc23)-c2cc(Cl)ccc21`, with 1100 nM; and `Cc1ccc2ncnc(NCCc3ccc(Cl)cc3)c2c1`, with 730 nM. `Nc1ccc2ncnc(NCCc3ccc(Oc4ccccc4)cc3)c2c1`: half-maximal inhibition (IC50) was put at 11 nM. On to `O=[N+]([O-])c1ccc(S(=O)(=O)Nc2cccc3cccnc23)cc1`, for which the IC50 turned out to be 1500 nM. For the compound `Nc1ccc2ncnc(NCCc3cccnc3)c2c1`, the IC50 is 8270 nM. Then `Nc1ccc2ncnc(NCCc3ccc(O)cc3)c2c1`, with 3640 nM; and `C#CCOc1ccc(CCNc2ncnc3ccc(N)cc23)cc1`, with 40 nM.

`CCOc1ccc(CCNc2ncnc3ccc(N)cc23)cc1` registered an IC50 of 21 nM. As to `C=CCOc1ccc(CCNc2ncnc3ccc(N)cc23)cc1`, half-maximal inhibition (IC50) was put at 12 nM. Against the preceding compound, the IC50 is about 1.8-fold lower. For the compound `CCCOc1ccc(CCNc2ncnc3ccc(N)cc23)cc1`, the IC50 came to 20 nM. This IC50 is about 1.7-fold higher than that of the compound before. `CC(C)Oc1ccc(CCNc2ncnc3ccc(N)cc23)cc1` returned an IC50 of 40 nM. This IC50 lies about 2-fold higher than the previous one. Then `Nc1ccc2ncnc(NCCN3CCOCC3)c2c1`, with more than 10000 nM; and `Nc1ccc2ncnc(NCCC3CCCCC3)c2c1`, with 685 nM; and `Cc1ccc(CCNc2ncnc3ccc(N)cc23)cc1`, with 210 nM. In turn, `Clc1ccc(Nc2ncnc3ccccc23)cc1` displayed an IC50 of more than 10000 nM. In turn, `CCCCCOc1ccc(CCNc2ncnc3ccc(N)cc23)cc1` displayed an IC50 of 2 nM. `COc1ccccc1CCNc1ncnc2ccc(N)cc12` registered an IC50 of 155 nM. For `Nc1ccc2ncnc(NCCc3ccc(Br)cc3)c2c1`, the IC50 was 207 nM. For `Clc1ccc(CCNc2nccc3ccccc23)cc1`, the half-maximal inhibitory concentration (IC50) was more than 10000 nM.

For `CCCCCCOc1ccc(CCNc2ncnc3ccc(N)cc23)cc1`, 4 nM corresponded to half-maximal inhibition (IC50). That is a single-digit nanomolar value. Compound `Nc1ccc2ncnc(NCCc3ccc(OCc4ccccn4)cc3)c2c1` [listing 1 of 2 here] had an IC50 of 12 nM. In turn, `Nc1ccc2ncnc(NCCc3cccc(Cl)c3)c2c1` gave an IC50 of 389 nM. In the case of `Nc1ccc2ncnc(NCCc3ccc(F)cc3)c2c1`, the IC50 was determined as 574 nM. Take `COc1ccc(CCNc2ncnc3ccc(N)cc23)cc1`: the IC50 came out at 90 nM. This IC50 is about 6.4-fold lower than that of the compound before. `CC(=O)Nc1ccc2ncnc(NCCc3ccc(Cl)cc3)c2c1`: the half-inhibitory concentration (IC50) was 4560 nM.

As to `Nc1ccc2ncnc(NCCN3CCCCC3)c2c1`, the half-maximal inhibitory concentration (IC50) is more than 10000 nM.

In the case of `NC(=O)c1ccc(CCNc2ncnc3ccc(N)cc23)cc1`, inhibition was half-maximal at 7330 nM (IC50). Regarding `Clc1ccc(CCNc2ccnc3ccccc23)cc1`, the half-inhibitory concentration (IC50) came out at 1390 nM. In the case of `Nc1ccc2ncnc(NCCc3ccc(OCc4ccccn4)cc3)c2c1` [listing 2 of 2 here], the IC50 was 14 nM. Then `Clc1ccc(CCCNc2ncnc3ccccc23)cc1`, with 1400 nM. Consider `COc1cccc(CCNc2ncnc3ccc(N)cc23)c1`, for which the IC50 was found to be 210 nM. As to `COC(=O)C1[C@@H](O)[C@@]2(O)c3c(cc4c(c3OC)OCO4)O[C@@]2(c2ccc(OC)cc2)[C@@H]1c1ccccc1` (some centres not stated), half-maximal inhibition (IC50) was put at 243 nM. The compound `Nc1ccc2ncnc(NCCc3ccc(OCc4ccc5ccccc5n4)cc3)c2c1` yielded a half-maximal inhibitory concentration (IC50) of 93 nM. `CC(=O)Nc1ccc(CCNc2ncnc3ccc(N)cc23)cc1` displayed an IC50 of 5980 nM. In turn, `Clc1ccc(CCNc2ncnc3ccc(Oc4ccccc4)cc23)cc1` registered an IC50 of 7340 nM.

`Nc1ccc2ncnc(NCCc3ccccc3)c2c1` showed an IC50 of 311 nM. Turning to `Nc1cc2c(NCCc3ccc(Cl)cc3)ncnc2cc1Cl`, the IC50 was 429 nM. Then `Nc1ccc2ncnc(NCCc3ccc(S(N)(=O)=O)cc3)c2c1`, with more than 10000 nM; and `Clc1ccc(CCNc2nncc3ccccc23)cc1`, with more than 10000 nM. The figure for `Nc1ccc2ncnc(NCCN3CCCC3)c2c1` is 3690 nM; for `CCCCOc1ccc(CCNc2ncnc3ccc(N)cc23)cc1` it is 11 nM; for `Nc1ccc2ncnc(NCCc3ccccc3Cl)c2c1` it is 254 nM. Consider `CN(C)C(=O)c1ccc(CCNc2ncnc3ccc(N)cc23)cc1`, for which inhibition was half-maximal at 2590 nM (IC50).

`COC(=O)C1[C@@H](O)[C@@]2(O)c3c(OC)cc(OC)cc3O[C@@]2(c2ccc3c(c2)OCO3)[C@@H]1c1ccccc1` (some centres not stated) displayed an IC50 of 319 nM. As to `COC(=O)C1[C@@H](O)[C@@]2(O)c3c(OC)cc(OC)cc3O[C@@]2(c2ccc(OC)cc2)[C@@H]1c1ccccc1` (some centres not stated), the IC50 is 197 nM. For the compound `Cc1csc2ncnc(NC3Cc4ccc(C(=O)N5CCOCC5)cc4C3)c12` (configuration not stated), the IC50 worked out at 38 nM. Regarding `CC(C)c1cccc(C(C)C)c1N1C(=O)c2cccc(O)c2C1=O`, it took 4950 nM to reach half-maximal inhibition (IC50). On to `CC(C)c1cccc(C(C)C)c1N1C(=O)c2ccc(N)cc2C1=O`, for which the concentration for half-maximal inhibition (IC50) came out at 29500 nM. Against the preceding compound, the IC50 is about 6-fold higher.

In turn, `COc1ccc([C@@]23Oc4cc(OC)cc(OC)c4[C@]2(O)[C@H](O)[C@H](C(N)=O)[C@H]3c2ccccc2)cc1` [DIDESMETHYLROCAGLAMIDE] returned an IC50 of 44 nM. Against the preceding compound, the IC50 is about 670-fold lower. Turning to `CC(C)C[C@@H](C=O)NC(=O)[C@H](CC(C)C)NC(=O)[C@H](CC(C)C)NC(=O)OCc1ccccc1` [MG-132] (Cbz-Leu-Leu-Leu-aldehyde), the IC50 stood at 715 nM. On to `COc1ccc([C@@]23Oc4cc(OC)cc(OC)c4[C@]2(O)[C@H](O)C[C@H]3c2ccccc2)cc1` [ROCAGLAOL], for which half-maximal inhibition (IC50) required 499 nM.
